# In publication PMC11783113, “Mechanistic insights into the selective targeting of P2X3 receptor by camlipixant antagonist” (The Journal of Biological Chemistry, 2024):
# Legend:
# P2X3 receptor [1] = molecular target: T1, P2X3 receptor (Canis lupus, UniProt A0A8I3S575); assay: MST Kd; cryo-EM structure of the P2X3–ATP complex; format: binding
# T1 construct: gene P2RX3; deletion of five first residues in the N-terminal region and the 33 last residues in the C-terminal region; homotrimer
# T1 sequence (A0A8I3S575 6-364): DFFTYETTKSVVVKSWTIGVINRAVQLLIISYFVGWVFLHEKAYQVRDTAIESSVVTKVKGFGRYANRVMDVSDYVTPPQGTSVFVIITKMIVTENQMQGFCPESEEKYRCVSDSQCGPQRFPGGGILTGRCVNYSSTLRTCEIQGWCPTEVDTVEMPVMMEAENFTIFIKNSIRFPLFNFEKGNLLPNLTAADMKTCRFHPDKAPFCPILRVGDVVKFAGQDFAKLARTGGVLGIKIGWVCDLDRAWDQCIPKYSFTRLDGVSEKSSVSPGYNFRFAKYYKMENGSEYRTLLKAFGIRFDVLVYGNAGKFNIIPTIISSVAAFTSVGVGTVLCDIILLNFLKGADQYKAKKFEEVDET
# P2X3 receptor [2] = molecular target: T1, P2X3 receptor; assay: ITC Kd; cryo-EM structure of the complex in peptidisc; also calcium influx IC50 […] in cells; format: binding
# [3] = molecular target: P2X3 receptor (Canis lupus), first five N-terminal and last 33 C-terminal residues deleted (Canis lupus sp.); assay: cryo-EM structure; camlipixant-bound P2X3 reconstituted into peptidisc; camlipixant at a molar ratio of 1:5, 30 min on ice; C3 symmetry
compound,measurement,setting,value
Nc1ncnc2c1ncn2[C@@H]1O[C@H](COP(=O)(O)OP(=O)(O)OP(=O)(O)O)[C@@H](O)[C@H]1O [ATP],Kd,P2X3 receptor [1],2 µM
CNC(=O)c1cc(F)c(-c2nc3cc(C)ccn3c2C[C@H]2CN(C(=O)OC)CCO2)c(F)c1 [camlipixant],Kd,P2X3 receptor [2],0.1 µM
"P2X3 receptor (Canis lupus), first five N-terminal and last 33 C-terminal residues deleted",stoichiometry N,[3],3
